These results are taken from paper PMC3404749 (Molecular Pharmaceutics, 2012).

The target of data set [1] is T1, expressed human SULT1A3 (Homo sapiens, UniProt P0DMM9). The data set is described as follows: Sulfonation activities of flavonoids in expressed human SULT1A3. The format is in vitro ADME. As to conditions: for sulfate detection when SULT1A3 was used: expressed SULT1A3, LC-MS/MS and UPLC; for sulfonation rate: pH 7.4, 37°C, n=3.
In data set [2] the target is T1, expressed human SULT1A3. In words: Kinetics of flavonoid sulfonation by SULT1A3. The settings on record: for Km1: SULT1A3, 0.039–20 µM substrate; for Kinetic model: SULT1A3, best-fit model by Eadie-Hofstee plot and AIC; for Ksi (substrate inhibition constant): SULT1A3, substrate inhibition model.
Data set [3] has as its target SULT1A3 (Homo sapiens, UniProt P0DMM9). In words: Kinetics of flavonoid sulfonation by SULT1A3. As to conditions: human.
Where [4] appears, read: expressed SULT1A3, substrate concentration 2.5 µM.
Setting [5] is: expressed SULT1A3, substrate concentration 10 µM.

The microsomal CLint is a measure of how fast metabolising enzymes remove a compound, apart from limits set by blood flow. A higher microsomal CLint goes with faster metabolism.

T1 sequence (P0DMM9 whole entry): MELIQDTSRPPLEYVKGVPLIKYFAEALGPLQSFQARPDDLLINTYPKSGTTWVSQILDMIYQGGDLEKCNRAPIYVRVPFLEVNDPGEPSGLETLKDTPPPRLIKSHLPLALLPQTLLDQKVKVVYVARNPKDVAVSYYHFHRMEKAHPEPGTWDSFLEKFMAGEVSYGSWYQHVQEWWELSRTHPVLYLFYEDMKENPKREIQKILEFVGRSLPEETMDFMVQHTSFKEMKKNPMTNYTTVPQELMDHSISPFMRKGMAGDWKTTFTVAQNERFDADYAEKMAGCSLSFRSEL
Chain of SULT1A3 (P0DMM9 whole entry): as above

Consider `O=c1c(O)c(-c2ccc(O)cc2)oc2ccccc12` [3,4’DHF, 3,4'-Dihydroxyflavone], for which the “sulfate detection when SULT1A3 was used” value in data set [1] is recorded as “not detected”. Besides, the sulfonation rate in data set [1] (setting [4]) and in data set [1] (setting [5]) was 0 nmol/hr/mg protein in each case.

In the case of `O=c1c(O)c(-c2ccccc2)oc2cc(O)cc(O)c12` [3,5,7THF, 3,5,7-Trihydroxyflavone], the sulfonation rate in data set [1] (setting [4]) was 13.88 ± 1.21 nmol/hr/mg protein; in data set [1] (setting [5]), 24.98 ± 0.49 nmol/hr/mg protein.

Take `O=c1c(O)c(-c2ccc(O)cc2)oc2cc(O)ccc12` [3,7,4'THF, 3,7,4'-Trihydroxyflavone]: the sulfonation rate in data set [1] (setting [4]) was determined as 6.80 ± 1.28 nmol/hr/mg protein; in data set [1] (setting [5]), 11.79 ± 0.33 nmol/hr/mg protein.

`O=c1c(O)c(-c2ccccc2)oc2cc(O)ccc12` [3,7DHF, 3,7-Dihydroxyflavone]: the “Vmax-1/ Km1” value in data set [2] (SULT1A3) came to 43000 µL/min/mg. Also, in data set [2], the Km1 is on record as 1.85 µM and the Kinetic model result is reported as “Sigmoidal kinetics of Hill equation”. The compound also had a sulfonation rate in data set [1] (setting [4]) of 45.84 ± 1.53 nmol/hr/mg protein. Moreover, the sulfonation rate in data set [1] (setting [5]) amounted to 74.69 ± 1.05 nmol/hr/mg protein.

Regarding `O=c1c(O)c(-c2ccccc2)oc2ccccc12` [3HF, 3-Hydroxyflavone], the “sulfate detection when SULT1A3 was used” value in data set [1] is reported as “not detected”. The sulfonation rate in data set [1] (setting [4]) and in data set [1] (setting [5]) was 0 nmol/hr/mg protein throughout.

`O=c1cc(-c2ccc(O)cc2)oc2ccccc12` [4’HF, 4'-Hydroxyflavone]: the “sulfate detection when SULT1A3 was used” value in data set [1] is recorded as “not detected”. Also, the sulfonation rate in data set [1] (setting [4]) amounted to 0 nmol/hr/mg protein.

As to `O=c1cc(-c2ccccc2)oc2cc(O)cc(O)c12` [5,7DHF, 5,7-Dihydroxyflavone], in data set [2], the Km1 came out at 2.73 µM and the Kinetic model result is given as “Biphasic kinetics”. In addition, in data set [2] (SULT1A3, biphasic kinetics), the “Vmax-2 (biphasic)” value came out at 17.38 nmol/min/mg. In data set [2] (SULT1A3, biphasic kinetics, low-affinity phase), the Km2 is 1e-06 mM. The sulfonation rate in data set [1] (setting [4]) was 62.30 ± 2.54 nmol/hr/mg protein. The same compound displayed a sulfonation rate in data set [1] (setting [5]) of 85.37 ± 1.53 nmol/hr/mg protein.

As to `O=c1cc(-c2ccccc2)oc2cccc(O)c12` [5HF, 5-Hydroxyflavone], the “sulfate detection when SULT1A3 was used” value in data set [1] is “not detected”. In data set [1] (setting [4]), this compound displayed a sulfonation rate of 0 nmol/hr/mg protein.

With `O=c1cc(-c2ccc(O)cc2)oc2cc(O)ccc12` [7,4’DHF, 7,4'-Dihydroxyflavone], in data set [2], the Km1 is 3.42 µM, the Kinetic model entry was “Substrate inhibition” and the “Ksi (substrate inhibition constant)” value turned out to be 13.81. The same compound had a sulfonation rate in data set [1] (setting [4]) of 7.54 ± 0.34 nmol/hr/mg protein. In data set [1] (setting [5]), this compound came in with a sulfonation rate of 10.30 ± 1.64 nmol/hr/mg protein.

The compound `O=c1cc(-c2ccccc2)oc2cc(O)ccc12` [7HF, 7-Hydroxyflavone] displayed a microsomal CLint in data set [3] of 30400 µL/min/mg. Besides, in data set [2], the Km1 is reported as 2.80 µM, the Kinetic model result was “substrate inhibition kinetics” and the “Ksi (substrate inhibition constant)” value turned out to be 23.12. In addition, in data set [1] (setting [4]), the sulfonation rate came out at 35.66 ± 4.72 nmol/hr/mg protein. Further, in data set [1] (setting [5]), the sulfonation rate is 48.92 ± 5.18 nmol/hr/mg protein.

As for `O=c1cc(-c2ccc(O)cc2)oc2cc(O)cc(O)c12` [apigenin, 5,7,4'-Trihydroxyflavone], the sulfonation rate was found to be 19.00 ± 1.58 nmol/hr/mg protein in data set [1] (setting [4]); 19.00±1.58 nmol/hr/mg protein in data set [1] (expressed SULT1A3, substrate concentration 2.5 µM, listed as 5,7,4'THF); 19.36 ± 0.41 nmol/hr/mg protein in data set [1] (setting [5]).

Consider `O=c1c(-c2ccc(O)cc2)coc2cc(O)cc(O)c12` [genistein, Genistein], for which, in data set [1], the “sulfate detection when SULT1A3 was used” value is on record as “not detected”. The sulfonation rate in data set [1] (setting [4]) and in data set [1] (setting [5]) was 0 nmol/hr/mg protein in each case.

As for `O=c1c(O)c(-c2ccc(O)cc2)oc2cc(O)cc(O)c12` [kaempferol, 3,5,7,4’tetrahydroxyflavone], the figures for the sulfonation rate in data set [1] (setting [4]) and in data set [1] (setting [5]) were 3.78 ± 0.79 nmol/hr/mg protein and 5.77 ± 0.22 nmol/hr/mg protein, respectively.

Take `O=C1C[C@@H](c2ccc(O)cc2)Oc2cc(O)cc(O)c21` [naringenin, Naringenin]: the sulfonation rate came to 3.21 ± 0.36 nmol/hr/mg protein in data set [1] (setting [4]) and 12.03 ± 0.94 nmol/hr/mg protein in data set [1] (setting [5]).

Consider `O=C(CCc1ccc(O)cc1)c1c(O)cc(O)cc1O` [phloretin, Phloretin], for which the sulfonation rate in data set [1] (setting [4]) and in data set [1] (setting [5]) was 0 nmol/hr/mg protein throughout.
